Assay results reported in patent US11007169B2, “Cis-gnetin H and trans-gnetin H as therapeutic agents” (MIDDLE TENNESSEE STATE UNIVERSITY, priority 2014, dated 2021).

Assays:
[1] = test system: MCF-7 cells (human breast carcinoma); test: Inhibition of cell proliferation, AlamarBlue fluorescent assay, MCF-7; assay type: cell-based; conditions: MCF7, 48 hours, cancer cell line
Method: (§1) The cancer cell lines used in this study included human lung carcinoma (A549), human breast carcinoma (BT20 and MCF-7) and human osteosarcoma (U2OS), with the normal cell lines human peripheral lung epithelial cells (HPL1A) and human mammary epithelial cells (HMEC) serving as controls. A549, BT20, MCF-7, U2OS and HMEC cells were purchased from American Type Culture Collection (ATCC, USA), and HPL1A cells were obtained from Nagoya University, Japan. A549 and BT20 were grown in RPMI-1640 (Sigma), MCF-7 was grown in Dulbecco's Modified Eagle Medium (DMEM) (Sigma) supplemented with 0.01 mg/ml human recombinant insulin (Sigma), U2OS and HMEC were grown in McCoy's 5A (ATCC), and HPL1A was grown in DMEM/F-12K (Sigma). The mediums were supplemented with 10% Fetal Bovine Serum (FBS) (Gibco), 1% penicillin and streptomycin and incubated in a humidified atmosphere with 5% CO2 at 37° C.
(§2) The proliferation inhibition potential of cis- and trans-gnetin H was determined by a fluorescence dye staining method. Cells were seeded in a 96-well tissue culture-treated plate (BD Falcon) at a density of 4000 cells/well, and treated with cis- or trans-gnetin H for 48 hours. AlamarBlue dye (Invitrogen) was used to assess the viability of cells according to the manufacturer's instructions; the fluorescent intensity was read on a SpectraMax M2e microplate reader (Molecular Devices Inc.). […]

[2] = test system: NF-κB nuclear translocation in A549 cells; test: Inhibition of TNF-α activated NF-κB translocation, Arrayscan VTI HCS Reader; assay type: cell-based, human; conditions: 100 μM for 2 hrs, then 10 ng/ml TNF-α
Method: A549 cells were seeded in 96 well plates (BD Falcon) at a density of 4000 cells/well, and were treated with 100 μM cis- or trans-gnetin H for 2 hrs, followed by treatment of 10 ng/ml tumor necrosis factor-alpha (TNF-α) (Sigma). Untreated cells and cells treated with only 10 ng/ml TNF-α served as controls. Cells were fixed, permeabilized, and stained with Nuclear factor kappa B (NF-κB) primary antibody, Dylight 488 conjugated secondary antibody, and Hoechst 33342 dye, sequentially. The Hoechst and DyLight fluorophores respectively detect changes in nuclear morphology (blue fluorescence) and NF-κB distribution (green fluorescence). Images were acquired at different channels using suitable filters with a 20× objective and analyzed on the Arrayscan VTI HCS Reader (Thermo Scientific). The Nuclear Translocation BioApplication software (Thermo Scientific) was used for image acquisition and analysis. For each well, at least 400 cells were automatically acquired and analyzed. The translocation index was calculated by measuring the average intensity difference of NF-κB between the identified cytoplasmic region and nuclear region (MEAN_CircRingAvgIntenDiffCh2). Experiments were performed in triplicates.

[3] = test system: normal cells (HPL1A, HMEC); test: IC50 determination, normal cell lines; assay type: cell-based; conditions: Homo sapiens; HPL1A and HMEC, 48 hours; read-out: IC50 values in normal cells (range over cell lines)
Method: as §1, §2

[4] = test system: IL-8 in LPS-stimulated THP-1 cells; test: Cytokine response by ELISA, IL-8; assay type: cell-based, human; conditions: cis 12.5-50 μM, trans 8-30 μM, 20 ng/ml LPS, p<0.05
Method: (§3) THP-1 cells were maintained in RPMI 1640 medium supplemented with 10% complement-inactivated FBS and 1% penicillin/streptomycin (complete culture medium) at 37° C. with 5% CO2 supplemented. Cell concentrations were adjusted to desired concentrations for each experiment by centrifugation at 500×g for 5 min and resuspended in complete culture medium with 100 nM of PMA. Cell concentration was adjusted to 5×10^5 cells/ml for all assays and 2.5×10^5 cells/ml were used for NF-κB nuclear translocation assay. Cells were seeded onto 96-, 24-, or 12-well plates and incubated for 48 to 72 h to allow for differentiation. Cells were washed with serum-free RPMI 1640 medium before each experiment to remove the undifferentiated cells.
Differentiated THP-1 cells were pretreated with various concentrations of cis-gnetin H, trans-gnetin H, or 1 μM of dexamethasone for 1 h and stimulated with 20 ng/ml of LPS for 4 h. Dexamethasone is a synthetic glucocorticoid that suppresses cytokine response and was used as a positive control (Abraham et al., 2006, J. Exp. Med., 203:1883-9; Steer et al., J. Biol. Chem., 2000, 275(24):18432-40). Supernatants were collected for human cytokine ELISAs and the manufacturer's protocol was followed to assess the cytokine response. Cells remaining after the supernatant collection were tested for relative viability by Alamar Blue cytotoxicity assay as described earlier.

[5] = test system: caspase 3/7 in A549 cells; test: Caspase 3/7 activation assay (Caspase-Glo 3/7); assay type: cell-based, human; conditions: 100 μM
Method: Caspase 3/7 activity was analyzed using an in-situ luminescent marker. A549 and BT20 cells were seeded in a white 96-well plate (Greiner) at a density of 8000 cells/well, and treated with 100 μM cis- or trans-gnetin H for 24 hours. Caspase activity was then determined using the Caspase-Glo 3/7 Assay (Promega) according to the manufacturer's instructions. The luminescence of each sample was measured using a SpectraMax M2e Microplate Reader (Molecular Devices Inc.).

[6] = test system: p65 (RelA) nuclear translocation in THP-1 cells; test: Indirect immunofluorescence for NF-κB nuclear translocation; assay type: cell-based, human; conditions: pretreated 1 h, LPS 30 min; Bay 11-7082 10 μM
Method: as §3
Differentiated THP-1 cells were pretreated with 50 μM of cis-gnetin H, trans-gnetin H, or 10 μM of Bay 11-7082 for 1 h and stimulated with 1 μg/ml of LPS for 30 min. Bay 11-7082 is a compound that inhibits IKK α/β and IκB α phosphorylation and was used as a positive control (Juliana et al., 2010, J. Biol. Chem., 285:9792-802). Treated cells were fixed, permeabilized, blocked, and stained with NF-κB, p65 primary antibody, Dylight 488 conjugated secondary antibody, and Hoechst 33342 dye, sequentially. The Hoechst and DyLight fluorophores detect changes in nuclear morphology (blue fluorescence) and NF-κB distribution (green fluorescence) respectively. Nuclear Translocation Bioapplication software on the Arrayscan VTI reader was used for image acquisition and analysis. For each well, at least 400 cells were automatically acquired and analyzed. The translocation index was calculated by measuring the average intensity difference of NF-icB between the identified cytoplasmic region and nuclear region.

Compound: Oc1ccc(/C=C\c2c3c(cc4c2[C@H](c2cc(O)cc(O)c2)[C@@H](c2ccc(O)cc2)O4)O[C@H](c2ccc(O)cc2)[C@H]3c2cc(O)cc(O)c2)cc1 [cis-gnetin H]
- IC50 [1]: 10 µM
- TNF-α-induced NF-κB nuclear translocation [2]: significant inhibition
- IC50 [3]: 25.9 to 91 µM
- inhibition of IL-8 [4]: significant inhibition
- activities of caspase 3/7 compared with untreated A549 cells [5]: 3.65 fold
- p65 nuclear translocation [6]: inhibited the p65 nuclear translocation

Compound: Oc1ccc(/C=C/c2c3c(cc4c2[C@H](c2cc(O)cc(O)c2)[C@@H](c2ccc(O)cc2)O4)O[C@H](c2ccc(O)cc2)[C@H]3c2cc(O)cc(O)c2)cc1 [trans-gnetin H]
- IC50 [1]: 7.58 µM
- TNF-α-induced NF-κB nuclear translocation [2]: significant inhibition
- IC50 [3]: 25.9 to 91 µM
- inhibition of IL-8 [4]: significant inhibition
- activities of caspase 3/7 compared with untreated A549 cells [5]: 2.7 fold
- p65 nuclear translocation [6]: inhibited the p65 nuclear translocation
